These results are taken from patent publication US5550243A, “B preparation of 2- and 3- azido derivates of 1,5-iminosugars” (priority 1995, dated 1996).

Read-outs that look alike come from different tables or passages of the source. Where only a bound is given, the exact number is not on record here.

One test deals with visna virus. Kind of test: microbe, parasite or virus in culture. Conditions: for inhibition at 100 µM / inhibition at 1000 µM: Visna-maedi virus. Type of test: cell-based.
The next test concerns β-glucosidase. Kind of test: Inhibition of β-glucosidase in conventional enzyme assay. Type of test: biochemical. Conditions: 1 mM concentration.
Another test deals with α-glucosidase. Kind of test: Inhibition of α-glucosidase in conventional enzyme assay. As to conditions: 1 mM concentration. Type of test: biochemical.
[1] abbreviates: read-out: Visna % Plague Redn (Conc).
[2] abbreviates: read-out: Visna % Plaque Redn (Conc).

For `CCCCN1CC(NC(=O)CCC)C(O)C(O)C1CO` [Compound 30, 1,5-(butylimino)-1,2,5-trideoxy-2-{(1-oxobutyl)amino}-D-glucitol], in the test with visna virus (setting [1]), the inhibition at 100 µM came to 20%. Take `N[C@H]1[C@H](O)[C@@H](CO)NC[C@@H]1O` [Compound 37, 3-amino-1,3,5-trideoxy-1,5-imino-D-glucitol]: the inhibition at 1000 µM with visna virus (setting [2]) was determined as 30%. As for `CCCCN1CC(N)C(O)C(O)C1CO` [Compound 21, 2-amino-1,5-(butylimino)-1,2,5-trideoxy-D-glucitol], the inhibition at 100 µM in the test on visna virus (setting [1]) and in the test on visna virus (setting [2]) was 66% throughout. Take `CCCCN1CC(NC)C(O)C(O)C1CO` [Compound 29, 1,5-(butylimino)-1,2,5-trideoxy-2-(methylamino)-D-glucitol]: the inhibition at 100 µM in the test on visna virus (setting [1]) was 25%. As for `[N-]=[N+]=NC1CN(CCCC(F)(F)F)C(CO)C(O)C1O` [Compound 15, 2-azido-1,5-{(4,4,4-trifluorobutyl)imino}-1,2,5-trideoxy-D-glucitol], the inhibition at 1000 µM in the test on visna virus (setting [2]) is 41%. Regarding `CCCCN1CC(NC(=O)CCC)C(OC(=O)CCC)C(OC(=O)CCC)C1COC(=O)CCC` [Compound 31, 1,5-(butylimino)-1,2,5-trideoxy-2-{(1-oxobutyl)amino}-D-glucitol, tributanoate], the inhibition at 100 µM with visna virus (setting [1]) is 29%.

On to `N[C@H]1CN[C@H](CO)[C@@H](O)[C@@H]1O` [Compound 20, 2-amino-1,2,5-trideoxy-1,5-imino-D-glucitol], for which the inhibition at 100 µM in the test on visna virus (setting [2]) came to 91%.

Take `CN(C)CCN[C@@H]1[C@H](O)[C@@H](CO)NC[C@H]1O` [Compound 50, 3-[{2-(dimethylamino)ethyl}amino]-1,3,5-trideoxy-1,5-imino-D-altritol]: the “inhibition of β-glucosidase” value in the test with β-glucosidase is given as 22%. For the same molecule, the inhibition at 1000 µM with visna virus (setting [2]) came to 38%. The “inhibition of α-glucosidase” value in the test on α-glucosidase turned out to be 22%.

For the molecule `CCCCN1CC(N=[N+]=[N-])C(O)C(O)C1CO` [Compound 13, 2-azido-1,5-(butylimino)-1,2,5-trideoxy-D-glucitol], the inhibition at 100 µM with visna virus (setting [1]) and in the test with visna virus (setting [2]) was 78% in each case. Turning to `[N-]=[N+]=N[C@H]1CN[C@H](CO)[C@@H](O)[C@@H]1O` [Compound 12, 2-azido-1,2,5-trideoxy-1,5-imino-D-glucitol], in the test on visna virus (setting [2]), the inhibition at 100 µM was 76%.

With `CCCCN1CC(N(C)C)C(O)C(O)C1CO` [Compound 28, 1,5-(butylimino)-1,2,5-trideoxy-2-(dimethylamino)-D-glucitol], in the test with visna virus (setting [1]), the inhibition at 100 µM amounted to 41%.

Turning to `CCC(CC)CN1CC(N=[N+]=[N-])C(O)C(O)C1CO` [Compound 14, 2-azido-1,5-{(2-ethylbutyl)imino}-1,2,5-trideoxy-D-glucitol], in the test with visna virus (setting [2]), the inhibition at 100 µM was determined as 67%. For `CCC(CC)CN1CC(N)C(O)C(O)C1CO` [Compound 22, 2-amino-1,5-{(2-ethylbutyl)imino}-1,2,5-trideoxy-D-glucitol], in the test with visna virus (Table 3, no % printed), the “Visna % Plaque Redn (Conc), only a concentration bound printed” value is given as above 1 mm. Regarding `NC1CN(CCCC(F)(F)F)C(CO)C(O)C1O` [Compound 23, 2-amino-1,5-{(4,4,4-trifluorobutyl)imino}-1,2,5-trideoxy-D-glucitol], in the test on visna virus (setting [2]), the inhibition at 1000 µM was determined as 9%. On the same count and under the same terms, under `CCCCN1CC(N)C(N)C(O)C1CO` [Compound 46, 2,3-diamino-1,5-(butylimino)-1,2,3,5-tetradeoxy-D-glucitol] stands 3%.
